Experimental data as given in publication PMC7985170, “Marine Peptide-N6NH2 and Its Derivative-GUON6NH2 Have Potent Antimicrobial Activity Against Intracellular Edwardsiella tarda in vitro and in vivo” (Frontiers in Microbiology, 2021).
Converted amounts (≈) assume the structure as drawn. Where a SMILES comes first, the peptide text is derived from it. Bridges are numbered along the chain shown (N, C = ends).

Assays:
[1] = test system: inner membrane of E. tarda; experiment: Inner membrane penetration, PI staining by flow cytometry; assay type: cell-based, Edwardsiella tarda; details: 1× MIC, 5–30 min at 37°C, 1 × 10^8 CFU/mL
Procedure: Mid-log phase E. tarda cells (1 × 10^8 CFU/mL) were incubated with or without 1× MIC peptides solutions at 37°C for 5, 15, and 30 min, respectively. After washing twice with PBS, bacterial cells were then incubated with 50 μg/mL propidium iodide (PI) for 15 min and analyzed using a FACS Calibur Flow Cytometer (BD, United States) ([Stearns-Kurosawa et al., 2011]).

S. typhimurium ATCC14028 = assay type: cell-based, Salmonella typhimurium
Procedure: (§1) The antimicrobial activity of peptides was determined by the microbroth dilution method ([Zhang et al., 2014]). The bacterial strains were incubated in Mueller-Hinton (MH) medium at 28°C or 37°C overnight. Bacteria (1 × 10^5 CFU/mL) were added into 96-well plates, followed by the addition of serial dilutions of peptides (from 0.0625 to 128 μg/mL). The plates were incubated at 37°C for 18–24 h. The minimal inhibitory concentration (MIC) value was determined as the lowest peptide concentration at which no bacterial growth was observed.

[2] = assay type: cell-based, Streptococcus enteritidis
Procedure: as §1

murine erythrocytes = assay type: cell-based, mouse
Procedure: The hemolysis of peptides was evaluated by determining the amount of hemoglobin that was released from fresh mouse erythrocytes ([Flamm et al., 2019]). The blood cells were washed three times with 10 mM PBS (pH 7.4) and centrifuged for 10 min (1,500 rpm). Erythrocyte solution (8%, v/v) was mixed with peptide solutions (1:1) and incubated for 1 h at 37°C. The mixture was then centrifuged for 5 min (1,500 rpm), and the absorbance of supernatants was measured at 540 nm. Values of 0 and 100% hemolysis were determined in PBS and 0.1% triton X-100, respectively. The hemolysis of peptides was calculated using the following formula: Hemolysis (%) = [(Abs treated sample – Abs negative control)/(Abs positive control – Abs negative control)] × 100.

S. hyicus 15095 = assay type: cell-based, Staphylococcus hyicus
Procedure: as §1

S. aureus ATCC546 = assay type: cell-based, Staphylococcus aureus
Procedure: as §1

S. aureus ATCC25923 = assay type: cell-based, Staphylococcus aureus
Procedure: as §1

LPS = LPS binding, BODIPY-TR-cadaverine (BC) probe displacement; details: 0.5 μM LPS, 5 μM BC, Tris buffer pH 7.4; peptides 0.049 to 50 μM
Procedure: The BODIPY’-TR-cadaverine (BC) probe was used to determine the ability of peptides to bind to LPS ([Wang et al., 2020]). 0.5 μM LPS was incubated with 5 μM BC in […] Tris buffer (pH 7.4) for 4 h at 37°C. Subsequently, the peptides were added into the mixture and the final concentrations of peptides ranged from 0.049 to 50 μM. Ampicillin was used as the negative control. Changes in fluorescence were measured by a fluorescence spectrophotometry at room temperature (excitation/emission, 580/620 nm).

E. coli CVCC1515 = assay type: cell-based, Escherichia coli
Procedure: as §1

E. coli CVCC25922 = assay type: cell-based, Escherichia coli
Procedure: as §1

S. pullorum CVCC1789 = assay type: cell-based, Salmonella pullorum
Procedure: as §1

[3] = test system: Gram-negative and Gram-positive bacteria (ALL); experiment: Geometric mean of MICs and therapeutic index; assay type: cell-based; details: for GM ALL: geometric mean (GM) of MICs, all strains; for TI ALL: therapeutic index (TI), cell selectivity
Procedure: as §1
(§2) The geometric mean (GM) of MICs of peptides against Gram-negative and Gram-positive bacteria was calculated, and the result was shown in Table 3. […] For Gram-negative bacteria, the TI value of GUON6NH2 (53.33) was very close to N6NH2 (58.18), while for positive bacteria, the TI value of GUON6NH2 (12.8) was slightly higher than that of N6NH2 (12.31), indicating their huge therapeutic potential. For Gram-positive bacteria, DN6NH2 had the highest TI value and the best therapeutic potential.

Gram-negative bacteria = experiment: Geometric mean of MICs and therapeutic index; assay type: cell-based; details: for GM Gram-negative bacteria: geometric mean (GM) of MICs against Gram-negative bacteria; for TI Gram-negative bacteria: therapeutic index (TI), cell selectivity
Procedure: as §1, §2

Gram-positive bacteria = experiment: Geometric mean of MICs and therapeutic index; assay type: cell-based; details: for GM Gram-positive bacteria: geometric mean (GM) of MICs against Gram-positive bacteria; for TI Gram-positive bacteria: therapeutic index (TI), cell selectivity
Procedure: as §1, §2

Edwardsiella tarda = assay type: cell-based
Procedure: as §1

[4] = test system: Salmonella typhimurium CVCC533; assay type: cell-based; details: murium CVCC533
Procedure: as §1

Escherichia coli CVCC195 = assay type: cell-based
Procedure: as §1

[5] = test system: Staphylococcus aureus ATCC43300; assay type: cell-based
Procedure: as §1

[6] = test system: Staphylococcus hyicus 437-2; assay type: cell-based
Procedure: as §1

[7] = test system: Salmonella pullorum CVCC1802; assay type: cell-based
Procedure: as §1

E. tarda [8] = experiment: SEM and TEM morphology; assay type: cell-based, Edwardsiella tarda; details: 4× MIC, 2 h
Procedure: To further characterize the bactericidal effects of the peptides, scanning electron microscopy (SEM) and transmission electron microscopy (TEM) were used to visualize morphological changes ([Yang et al., 2019]). E. tarda was cultured to logarithmic growth stage (10^8 CFU/mL) and diluted with 0.01 M PBS (pH 7.4) to OD600 nm = 1. E. tarda cells were treated with 4× MIC peptides at 37°C for 2 h and the untreated cells were used as the control. Briefly, after centrifugation, the bacterial cells were washed three times with 0.1 M PBS (pH 7.2) and fixed overnight at 4°C with 2.5% glutaraldehyde. After washing again, the cells were fixed with 1% osmium tetroxide (OsO4) for 2 h and dehydrated in a graded ethanol series (50%–70%–85%–95% × 2–100%, × 2) for 15 min, respectively. The samples were then dried by CO2, sputtered with gold-palladium, and observed on a QUANTA200 SEM (FEI, Philips, Netherlands).
E. tarda cells were treated peptides before fixation as described above. The bacteria were washed with 0.01 M PBS (pH 7.4) for five times, 7 min each time, and fixed with 1% osmium acid buffer (4°C) for 1 h. After dehydration with a graded acetone series (30%–50%–70%–85%–95%–100% × 3), the cells were immersed in mixtures of acetone and resin (3:1, 1:1 and 1:3, respectively) for 40 min and in a pure epoxy resin overnight. The samples were then embedded in embedding medium and polymerized at 45°C for 3 h and at 65°C for 24 h, respectively. The sections were prepared using an ultramicrotome, stained with 1% uranyl acetate, and visualized by a JEM1400 (JEDL, Tokyo, Japan).

E. tarda [9] = experiment: Time-killing curve; assay type: cell-based, Edwardsiella tarda; details: 2× or 4× MIC, MHB, 1 × 10^5 CFU/mL, 28°C
Procedure: Time-killing curve of peptides was performed according to the previous method ([Flamm et al., 2019]). E. tarda was cultured to logarithmic phase, diluted in Mueller Hinton broth (MHB) (1 × 10^5 CFU/mL) containing 1×, 2×, or 4× MIC of peptides, and cultured at 28°C (200 rpm). PBS was added as a control. Bacterial samples (100 μL) were removed at different time intervals (0, 0.5, 1, 1.5, 2, 4, 6, 8, 10, 12, 22, and 24 h) and were counted on MH solid plates. The time-killing curves of peptides were plotted. Bacterial cells treated with 2× MIC norfloxacin and without treatment were used as the positive and blank controls, respectively.

| SMILES | penetration rate (PI-stained cells) [1] | MIC (S. typhimurium ATCC14028) [µg/mL] | MIC [2] [µg/mL] | MHC (murine erythrocytes) [µg/mL] | MIC (S. hyicus 15095) [µg/mL] | MIC (S. aureus ATCC546) [µg/mL] | MIC (S. aureus ATCC25923) [µg/mL] | ability to bind to LPS (BC probe displacement) (LPS) | MIC (E. coli CVCC1515) [µg/mL] | MIC (E. coli CVCC25922) [µg/mL] | MIC (S. pullorum CVCC1789) [µg/mL] | GM ALL [3] [µg/mL] | TI ALL [3] | GM Gram-negative bacteria (Gram-negative bacteria) [µg/mL] | TI Gram-negative bacteria (Gram-negative bacteria) | GM Gram-positive bacteria (Gram-positive bacteria) [µg/mL] | TI Gram-positive bacteria (Gram-positive bacteria) | MIC (Edwardsiella tarda) [µg/mL] | MIC [4] [µg/mL] | MIC (Escherichia coli CVCC195) [µg/mL] | also measured |
| --- | --- | --- | --- | --- | --- | --- | --- | --- | --- | --- | --- | --- | --- | --- | --- | --- | --- | --- | --- | --- | --- |
| CC(C)[C@H]1NC(=O)CNC(=O)[C@@H](CC(N)=O)NC(=O)[C@@H](CCCNC(=N)N)NC(=O)[C@@H](Cc2ccc(O)cc2)NC(=O)[C@@H](C(C)C)NC(=O)[C@H](NC(=O)[C@H](NC(=O)[C@@H](CC(N)=O)NC(=O)[C@@H](Cc2c[nH]c3ccccc23)NC(=O)[C@@H](C)NC(=O)[C@@H](Cc2ccccc2)NC(=O)CN)C(C)C)CSSC[C@H](C(=O)N[C@H](Cc2c[nH]cn2)C(=O)N[C@H](CCCNC(=N)N)C(=O)N[C@H](CCCNC(=N)N)C(=O)N[C@H](C)C(=O)N[C@H](CC(N)=O)C(N)=O)NC(=O)[C@@H](C(C)C)NC(=O)[C@@H](CCCNC(=N)N)NC1=O [DN6NH2] | 1.3–16.1% | 8 (≈ 3.23 µM) | 2 (≈ 0.808 µM) | >128 | 4 (≈ 1.62 µM) | 16 (≈ 6.46 µM) | 8 (≈ 3.23 µM) | V112N6NH2 > GUON6NH2 > N6NH2 > DN6NH2 > N6PNH2 | 4 (≈ 1.62 µM) | 8 (≈ 3.23 µM) | 16 (≈ 6.46 µM) | 8.13 | 31.49 | 8.2 | 31.22 | 8 | 32 | 8 (≈ 3.23 µM) | 16 (≈ 6.46 µM) | 8 (≈ 3.23 µM) | MIC [5]: 4 µg/mL (≈ 1.62 µM); MIC [6]: 8 µg/mL (≈ 3.23 µM); MIC [7]: 8 µg/mL (≈ 3.23 µM); morphological changes by SEM (E. tarda [8]): no significant change in the bacterial cell structures |
| CC(C)[C@@H]1NC(=O)CNC(=O)[C@H](CC(N)=O)NC(=O)[C@H](CCCNC(=N)N)NC(=O)[C@H](Cc2ccc(O)cc2)NC(=O)[C@H](C(C)C)NC(=O)[C@@H](NC(=O)[C@@H](NC(=O)[C@H](CC(N)=O)NC(=O)[C@H](Cc2c[nH]c3ccccc23)NC(=O)[C@H](C)NC(=O)[C@H](Cc2ccccc2)NC(=O)CN)C(C)C)CSSC[C@@H](C(=O)N[C@@H](Cc2c[nH]cn2)C(=O)N[C@@H](CCCNC(=N)N)C(=O)N2CCC[C@H]2C(=O)N[C@@H](C)C(=O)N[C@@H](CC(N)=O)C(N)=O)NC(=O)[C@H](C(C)C)NC(=O)[C@H](CCCNC(=N)N)NC1=O [N6PNH2] (H-GFAWNVCVYRNGVRVCHRPAN-NH2; disulfide 7-16 (inferred); N-terminus assumed) | 0.42–2.20% | 16 (≈ 6.62 µM) | 2 (≈ 0.828 µM) | >128 | 64 (≈ 26.5 µM) | >64 | >64 | V112N6NH2 > GUON6NH2 > N6NH2 > DN6NH2 > N6PNH2 | 4 (≈ 1.66 µM) | 8 (≈ 3.31 µM) | 16 (≈ 6.62 µM) | 47.33 | 5.41 | 13.4 | 19.1 | 115.2 | 2.22 | 32 (≈ 13.2 µM) | 32 (≈ 13.2 µM) | 8 (≈ 3.31 µM) | MIC [5]: >64 µg/mL; MIC [6]: >64 µg/mL; MIC [7]: 8 µg/mL (≈ 3.31 µM) |
| CC(C)[C@H](N)C(=O)N[C@@H](Cc1ccccc1)C(=O)N[C@@H](C)C(=O)N[C@@H](Cc1c[nH]c2ccccc12)C(=O)N[C@@H](CC(N)=O)C(=O)N[C@H](C(=O)N[C@H]1CSSC[C@@H](C(=O)N[C@@H](Cc2c[nH]cn2)C(=O)N[C@@H](CCCNC(=N)N)C(=O)N[C@@H](CCCNC(=N)N)C(=O)N[C@@H](C)C(=O)N[C@@H](CC(N)=O)C(N)=O)NC(=O)[C@H](C(C)C)NC(=O)[C@H](CCCNC(=N)N)NC(=O)[C@H](C(C)C)NC(=O)[C@H](C(C)C)NC(=O)[C@H](CC(N)=O)NC(=O)[C@H](CCCNC(=N)N)NC(=O)[C@H](Cc2ccc(O)cc2)NC(=O)[C@H](C(C)C)NC1=O)C(C)C [V112N6NH2] (H-VFAWNVCVYRNVVRVCHRRAN-NH2; disulfide 7-16 (inferred); N-terminus assumed) | 0.85–30.1% | 16 (≈ 6.25 µM) | 2 (≈ 0.782 µM) | >128 | 16 (≈ 6.25 µM) | 16 (≈ 6.25 µM) | 32 (≈ 12.5 µM) | V112N6NH2 > GUON6NH2 > N6NH2 > DN6NH2 > N6PNH2 | 4 (≈ 1.56 µM) | 8 (≈ 3.13 µM) | 16 (≈ 6.25 µM) | 16.4 | 15.61 | 11.8 | 21.69 | 25.6 | 10 | 32 (≈ 12.5 µM) | 16 (≈ 6.25 µM) | 8 (≈ 3.13 µM) | time to completely kill E. tarda (E. tarda [9]): ≤ 6 h; MIC [5]: 32 µg/mL (≈ 12.5 µM); MIC [6]: 32 µg/mL (≈ 12.5 µM); MIC [7]: 8 µg/mL (≈ 3.13 µM); morphological changes by SEM (E. tarda [8]): some protrusions were observed on the cell surfaces |
| CC1(C)S[C@@H]2[C@H](NC(=O)[C@H](N)c3ccccc3)C(=O)N2[C@H]1C(=O)O [ampicillin, Ampicillin, reference compound] | – | – | – | – | – | – | – | did not replace BC probe to bind to LPS | – | – | – | – | – | – | – | – | – | – | – | – | – |
